Consider eleven molecules from patent US20230139171A1 (SITA Information Networking Computing UK Limited, priority 2019, published 2023).

Common to all, as to assay type: cell-based
One experiment has as its target T1, human TLR7 (Homo sapiens, UniProt Q9NYK1).
T1 construct: host or cells: HEK-Blue cells
T1 sequence (Q9NYK1 27-1049): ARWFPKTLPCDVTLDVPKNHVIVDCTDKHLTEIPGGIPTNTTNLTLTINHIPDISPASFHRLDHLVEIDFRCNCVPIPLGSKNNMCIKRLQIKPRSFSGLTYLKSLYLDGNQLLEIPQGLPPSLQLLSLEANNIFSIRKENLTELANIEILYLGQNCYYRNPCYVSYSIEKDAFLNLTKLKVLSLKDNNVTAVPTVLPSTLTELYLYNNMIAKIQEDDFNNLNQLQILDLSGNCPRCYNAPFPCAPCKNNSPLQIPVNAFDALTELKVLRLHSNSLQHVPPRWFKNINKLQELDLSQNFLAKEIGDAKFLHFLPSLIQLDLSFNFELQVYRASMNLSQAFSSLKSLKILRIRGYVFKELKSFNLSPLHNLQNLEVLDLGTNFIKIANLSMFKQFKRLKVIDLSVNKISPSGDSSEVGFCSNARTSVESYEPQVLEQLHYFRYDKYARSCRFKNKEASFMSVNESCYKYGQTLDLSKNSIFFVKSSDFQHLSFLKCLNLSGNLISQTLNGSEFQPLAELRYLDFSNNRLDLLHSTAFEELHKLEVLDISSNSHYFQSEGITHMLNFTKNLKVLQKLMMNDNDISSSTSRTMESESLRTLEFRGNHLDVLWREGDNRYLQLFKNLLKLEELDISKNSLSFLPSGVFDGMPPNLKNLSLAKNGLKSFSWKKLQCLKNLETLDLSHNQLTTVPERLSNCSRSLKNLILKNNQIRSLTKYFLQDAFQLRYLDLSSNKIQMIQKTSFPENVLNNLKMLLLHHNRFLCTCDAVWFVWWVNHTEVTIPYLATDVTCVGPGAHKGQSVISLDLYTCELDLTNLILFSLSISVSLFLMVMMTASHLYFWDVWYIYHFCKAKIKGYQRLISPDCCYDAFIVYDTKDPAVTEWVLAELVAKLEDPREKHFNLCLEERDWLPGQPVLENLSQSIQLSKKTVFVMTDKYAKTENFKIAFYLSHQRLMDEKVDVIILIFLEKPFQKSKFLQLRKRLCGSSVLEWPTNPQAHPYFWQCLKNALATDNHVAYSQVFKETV
Nature of the experiment: TLR7 inhibition reporter assay (HEK-Blue cells, SEAP reporter, gardiquimod stimulation). The conditions noted are these: HEK-Blue cells overexpressing human TLR7, SEAP reporter, gardiquimod 7.5 μM; read-out: TLR7 IC50. The method in brief:
(§1)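 Dose–response from 0.05 nM to 50 μM was run in HEK-Blue human TLR7, TLR8 and TLR9 reporter cells. After 30 min at room temperature with compound, ligand was added (TLR7 gardiquimod 7.5 μM; TLR8 R848 15.9 μM; TLR9 ODN2006 5 nM) and SEAP measured next day, at 22 h.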
(In a reporter assay the amount or activity of a reporter protein is the signal.)

A further experiment deals with T2, human TLR9 (Homo sapiens, UniProt Q9NR96).
T2 construct: host or cells: HEK-Blue cells
T2 sequence (Q9NR96 26-1032): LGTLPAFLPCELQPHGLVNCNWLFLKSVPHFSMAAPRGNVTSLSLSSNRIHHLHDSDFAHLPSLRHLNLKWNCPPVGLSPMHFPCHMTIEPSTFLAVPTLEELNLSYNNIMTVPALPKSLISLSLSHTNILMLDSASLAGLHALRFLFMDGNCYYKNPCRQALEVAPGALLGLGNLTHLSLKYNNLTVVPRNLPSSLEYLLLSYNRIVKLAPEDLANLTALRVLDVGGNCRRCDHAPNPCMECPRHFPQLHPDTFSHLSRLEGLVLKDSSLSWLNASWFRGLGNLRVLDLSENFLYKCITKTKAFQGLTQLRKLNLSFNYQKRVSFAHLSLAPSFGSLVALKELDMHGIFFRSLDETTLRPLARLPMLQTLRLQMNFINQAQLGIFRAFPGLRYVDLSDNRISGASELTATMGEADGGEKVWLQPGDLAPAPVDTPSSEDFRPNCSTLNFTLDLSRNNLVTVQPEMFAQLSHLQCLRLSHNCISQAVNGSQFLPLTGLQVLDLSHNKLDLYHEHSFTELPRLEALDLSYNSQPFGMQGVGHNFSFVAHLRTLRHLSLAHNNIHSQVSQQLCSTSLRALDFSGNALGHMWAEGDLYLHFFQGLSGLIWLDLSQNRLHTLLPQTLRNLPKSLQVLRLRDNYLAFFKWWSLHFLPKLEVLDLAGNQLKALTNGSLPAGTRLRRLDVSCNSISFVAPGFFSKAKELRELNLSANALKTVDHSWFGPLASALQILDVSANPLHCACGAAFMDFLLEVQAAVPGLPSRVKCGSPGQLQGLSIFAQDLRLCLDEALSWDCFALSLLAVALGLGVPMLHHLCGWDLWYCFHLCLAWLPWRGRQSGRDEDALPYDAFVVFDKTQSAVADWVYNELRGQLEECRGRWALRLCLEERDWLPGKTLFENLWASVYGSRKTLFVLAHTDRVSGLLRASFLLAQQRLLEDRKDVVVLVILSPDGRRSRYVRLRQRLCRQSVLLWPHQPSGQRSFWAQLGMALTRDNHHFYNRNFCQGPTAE
Put plainly: TLR9 inhibition reporter assay (HEK-Blue cells, SEAP reporter, ODN2006 stimulation). The conditions noted are these: HEK-Blue cells overexpressing human TLR9, SEAP reporter, ODN2006 5 nM. The method in brief: as §1

The target in a further experiment is T3, human TLR8 (Homo sapiens, UniProt Q9NR97).
T3 construct: host or cells: HEK-Blue cells
T3 sequence (Q9NR97 27-1041): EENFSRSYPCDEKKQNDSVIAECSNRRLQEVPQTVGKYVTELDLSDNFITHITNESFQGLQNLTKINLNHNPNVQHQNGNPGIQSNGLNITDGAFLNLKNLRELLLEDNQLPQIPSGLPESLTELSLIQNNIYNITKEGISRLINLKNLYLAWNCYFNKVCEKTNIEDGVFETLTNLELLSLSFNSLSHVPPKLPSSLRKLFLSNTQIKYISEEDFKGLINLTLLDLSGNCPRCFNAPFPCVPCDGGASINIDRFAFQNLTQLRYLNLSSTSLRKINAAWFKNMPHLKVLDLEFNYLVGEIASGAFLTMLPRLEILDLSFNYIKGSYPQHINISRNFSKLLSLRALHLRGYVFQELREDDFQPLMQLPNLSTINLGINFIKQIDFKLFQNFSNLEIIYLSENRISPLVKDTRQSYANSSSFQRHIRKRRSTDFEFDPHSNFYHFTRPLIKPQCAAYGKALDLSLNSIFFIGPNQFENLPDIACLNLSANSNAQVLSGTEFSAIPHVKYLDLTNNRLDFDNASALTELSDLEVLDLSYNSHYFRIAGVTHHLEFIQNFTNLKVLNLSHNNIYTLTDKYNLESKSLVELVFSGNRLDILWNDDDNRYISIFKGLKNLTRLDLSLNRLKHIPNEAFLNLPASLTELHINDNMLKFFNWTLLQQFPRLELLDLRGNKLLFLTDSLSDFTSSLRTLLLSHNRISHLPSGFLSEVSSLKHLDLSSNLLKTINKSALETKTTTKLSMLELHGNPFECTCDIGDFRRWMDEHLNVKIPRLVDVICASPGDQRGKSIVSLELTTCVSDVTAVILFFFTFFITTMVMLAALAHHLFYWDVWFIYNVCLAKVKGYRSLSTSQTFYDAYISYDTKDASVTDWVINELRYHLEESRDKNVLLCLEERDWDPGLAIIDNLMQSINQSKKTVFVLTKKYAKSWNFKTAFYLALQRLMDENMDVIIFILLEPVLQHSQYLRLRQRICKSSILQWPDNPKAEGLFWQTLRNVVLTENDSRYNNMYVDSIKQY
Nature of the experiment: TLR8 inhibition reporter assay (HEK-Blue cells, SEAP reporter, R848 stimulation). The conditions noted are these: HEK-Blue cells overexpressing human TLR8, SEAP reporter, R848 15.9 μM; read-out: TLR8 IC50. The method in brief:
as §1

What is called IC50 is the concentration needed to halve the response being measured. `Cc1c(-c2[nH]c3sc(C4CCC(N5CC(F)C5)CC4)nc3c2C(C)C)cn2ncnc2c1C` (single isomer, unassigned) [Example 226, 5-(7,8-dimethyl-[1,2,4]triazolo[1,5-a]pyridin-6-yl)-2-(4-(3-fluoroazetidin-1-yl)cyclohexyl)-6-isopropyl-4H-pyrrolo[3,2-d]thiazole]: the figures for the concentration for half-maximal inhibition (IC50) on human TLR7, against human TLR9 and at human TLR8 were 0.35 nM, 6.78 µM and 0.41 nM, respectively.
For `COc1cc(-c2[nH]c3sc(C4CCC(NC(C)C)CC4)nc3c2C(C)C)cn2ncnc12` (single isomer, unassigned) [Example 79, N-isopropyl-4-(6-isopropyl-5-(8-methoxy-[1,2,4]triazolo[1,5-a]pyridin-6-yl)-4H-pyrrolo[3,2-d]thiazol-2-yl)cyclohexan-1-amine], in that order: 2.29 nM, 4.12 µM and 9.23 nM.
In the same order, the values of `Cc1c(-c2[nH]c3sc(C(=O)N4CC(N(C)C)C4)nc3c2C(C)C)cn2ncnc2c1C` [Example 383, (5-(7,8-dimethyl-[1,2,4]triazolo[1,5-a]pyridin-6-yl)-6-isopropyl-4H-pyrrolo[3,2-d]thiazol-2-yl) (3-(dimethylamino)azetidin-1-yl)methanone] are 17.5 nM, 47 µM and 3.51 nM.
Turning to `Cc1c(-c2[nH]c3sc(C(=O)N(C)CCN(C)C)nc3c2C(C)C)cn2ncnc2c1C` [Example 382, 5-(7,8-dimethyl-[1,2,4]triazolo[1,5-a]pyridin-6-yl)-N-(2-(dimethylamino)ethyl)-6-isopropyl-N-methyl-4H-pyrrolo[3,2-d]thiazole-2-carboxamide], the IC50 came to 2.32 nM on human TLR7, 9.86 µM on human TLR9 and 2.33 nM on human TLR8.
On to `Cc1c(-c2[nH]c3sc(C4CCC(N5CCOCC5)CC4)nc3c2C(C)C)cn2ncnc2c1C` (single isomer, unassigned) [Example 213, 4-(4-(5-(7,8-dimethyl-[1,2,4]triazolo[1,5-a]pyridin-6-yl)-6-isopropyl-4H-pyrrolo[3,2-d]thiazol-2-yl)cyclohexyl) morpholine], for which the results for the IC50 at human TLR7, against human TLR9 and at human TLR8 were 4.64 nM, 25.5 µM and 3.41 nM, respectively.
On to `COc1cc(-c2[nH]c3sc(C4CCC(NC5CCN(C(C)C)CC5)CC4)nc3c2C(C)C)cn2ncnc12` (single isomer, unassigned) [Example 166, 1-isopropyl-N-(4-(6-isopropyl-5-(8-methoxy-[1,2,4]triazolo[1,5-a]pyridin-6-yl)-4H-pyrrolo[3,2-d]thiazol-2-yl)cyclohexyl)piperidin-4-amine], for which the IC50 is 0.88 nM on human TLR7, 0.383 µM on human TLR9 and 0.87 nM at human TLR8.
In the case of `Cc1c(-c2[nH]c3sc(N4CCN(C5CCOCC5)C[C@H]4C)nc3c2C(C)C)cn2ncnc2c1C` [Example 318, (R)-5-(7,8-dimethyl-[1,2,4]triazolo[1,5-a]pyridin-6-yl)-6-isopropyl-2-(2-methyl-4-(tetrahydro-2H-pyran-4-yl)piperazin-1-yl)-4H-pyrrolo[3,2-d] thiazole], the IC50 was found to be 6.23 nM at human TLR7, 21.6 µM against human TLR9 and 0.83 nM on human TLR8.
For the molecule `COc1cc(-c2[nH]c3sc(C4CCC(N5CC6(COC6)C5)CC4)nc3c2C(C)C)cn2ncnc12` (single isomer, unassigned) [Example 69, 6-(4-(6-isopropyl-5-(8-methoxy-[1,2,4]triazolo[1,5-a]pyridin-6-yl)-4H-pyrrolo[3,2-d]thiazol-2-yl)cyclohexyl)-2-oxa-6-azaspiro[3.3]heptane], the IC50 is 4.17 nM on human TLR7, 6.32 µM against human TLR9 and 35.6 nM at human TLR8.
For `COc1cc(-c2[nH]c3sc(C4CCC(N(C)CCS(C)(=O)=O)CC4)nc3c2C(C)C)cn2ncnc12` (single isomer, unassigned) [Example 165, 4-(6-isopropyl-5-(8-methoxy-[1,2,4]triazolo[1,5-a]pyridin-6-yl)-4H-pyrrolo[3,2-d]thiazol-2-yl)-N-methyl-N-(2-(methylsulfonyl)ethyl) cyclohexan-1-amine], in that order: 1.61 nM, 22.8 µM and 14.4 nM.
For the molecule `COc1cc(-c2[nH]c3sc(C4CCN(C(C)C)CC4)nc3c2C(C)C)cn2ncnc12` [Example 10, 6-isopropyl-2-(1-isopropylpiperidin-4-yl)-5-(8-methoxy-[1,2,4]triazolo[1,5-a]pyridin-6-yl)-4H-pyrrolo[3,2-d]thiazole], the IC50 amounted to 1.37 nM at human TLR7, 1.33 µM on human TLR9 and 1.9 nM at human TLR8.
As to `CCN(C)C1CCC(c2nc3c(C(C)C)c(-c4cc(OC)c5ncnn5c4)[nH]c3s2)CC1` (single isomer, unassigned) [Example 73, N-ethyl-4-(6-isopropyl-5-(8-methoxy-[1,2,4]triazolo[1,5-a]pyridin-6-yl)-4H-pyrrolo[3,2-d]thiazol-2-yl)-N-methylcyclohexan-1-amine], the IC50 on human TLR7 was 0.96 nM; against human TLR9 it was 4.28 µM; at human TLR8, 12.7 nM.
